Data from patent publication US6451814B1, “Heterocyclic β-3 adrenergic receptor agonists” (Wyeth, priority 2000, dated 2002).
Structures can show the parent of a compound that is named as a salt. Where two headings read alike, the source gives them in different places.

Experiments:
[1] = molecular target: T1, human β3-adrenergic receptor (Homo sapiens, UniProt P13945); experiment: cAMP response (SPA kit) in CHO cells transfected with human β3 adrenergic receptor; type: cell-based; conditions: for EC50: CHO cells expressing human β3-AR, 10^-9 M to 10^-5 M, 30 min at 37° C., cAMP by SPA; for IA(β3): maximal response of compound compared to maximal response of isoproterenol at 10^-5 M, CHO cells, human β3-AR
T1 construct: Full length β3 AR clones (402 amino acids) containing the last 6 amino acids of hβ3—AR are prepared; expressed in transfected cells; host or cells: CHO cells
T1 sequence (P13945 whole entry): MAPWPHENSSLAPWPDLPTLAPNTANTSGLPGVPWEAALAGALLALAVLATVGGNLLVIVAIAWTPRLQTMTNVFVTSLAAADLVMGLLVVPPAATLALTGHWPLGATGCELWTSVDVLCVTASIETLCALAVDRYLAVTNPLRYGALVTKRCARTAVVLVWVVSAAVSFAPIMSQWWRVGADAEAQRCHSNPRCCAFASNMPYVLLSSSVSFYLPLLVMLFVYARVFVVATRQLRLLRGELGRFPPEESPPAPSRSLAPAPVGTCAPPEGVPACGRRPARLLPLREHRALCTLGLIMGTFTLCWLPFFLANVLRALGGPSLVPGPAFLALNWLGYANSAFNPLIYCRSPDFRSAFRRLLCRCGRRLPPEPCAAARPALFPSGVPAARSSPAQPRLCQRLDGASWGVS

O=C(c1n[nH]c2ccccc12)N1CCC(Nc2ccc(CCNC[C@H](O)COc3ccc(O)cc3)cc2)CC1 (as salt: salt) [Example 102, [4-(4-{2-[(2S)-2-Hydroxy-3-(4-hydroxy-phenoxy)-propylamino]-ethyl}-phenylamino)-piperidin-1-yl]-(1H-indazol-3-yl)-methanone]
melting point: 111 to 113 °C

CN(C)C(=O)Oc1ccc(CNC(=O)N2CCC(Nc3ccc(CCNC[C@H](O)COc4ccc(O)cc4)cc3)CC2)c(F)c1 [Example 84, Dimethyl-carbamic Acid 3-fluoro-4-({[4-(4-{2-[(2S)-2-hydroxy-3-(4-hydroxy-phenoxy)-propylamino]-ethyl}-phenlamino)-piperidine-1-carbonyl]-amino}-methyl)-phenyl Ester]
EC50 ([1]; EC50(β3, μM)): 0.096 µM | IA(β3) [1]: 0.75

CS(=O)(=O)Nc1cc([C@@H](O)CNCCc2ccc(NC3CCN(c4nc(-c5ccccc5)cs4)CC3)cc2)ccc1O [Example 118, (R)-N-{2-Hydroxy-5-[1-hydroxy-2-(2-{4-[1-(4-phenyl-thiazol-2-yl)-piperidin-4-ylamino]-phenyl}-ethylamino)-ethyl]-phenyl}-methanesulfonamide]
EC50 ([1]; read-out: EC50(β3)): 0.022 µM | IA(β3) [1]: 0.96

COc1c(C(=O)N2CCC(Nc3ccc(CCNC[C@H](O)COc4ccc(O)cc4)cc3)CC2)sc2ccccc12 [Example 97, [4-(4-{2-[(2S)-2-Hydroxy-3-(4-hydroxy-phenoxy)-propylamino]-ethyl}-phenylamino)-piperidin-1-yl]-(3-methoxy-benzo[b]thiophen-2-yl)-methanone]
EC50 ([1]; read-out: EC50(β3)): 0.034 µM | IA(β3) [1]: 0.79

O=C(c1n[nH]c2ccccc12)N1CCC(Nc2ccc(CCNC[C@H](O)COc3ccc(O)cc3)cc2)CC1 [Example 102, [4-(4-{2-[(2S)-2-Hydroxy-3-(4-hydroxy-phenoxy)-propylamino]-ethyl}-phenylamino)-piperidin-1-yl]-(1H-indazol-3-yl)-methanone]
EC50 ([1]; read-out: EC50(β3)): 0.009 µM | IA(β3) [1]: 0.95

CCN(CC)C(=O)CCNC(=O)N1CCC(Nc2ccc(CCNC[C@H](O)COc3ccc(O)cc3)cc2)CC1 [Example 89, 4-(4-{2-[(2S)-2-Hydroxy-3-(4-hydroxy-phenoxy)-propylamino]-ethyl}-phenylamino)-piperidine-1-carboxylic Acid (2-diethylcarbamoyl-ethyl)-amide]
EC50 ([1]; read-out: EC50(β3)): 0.093 µM | IA(β3) [1]: 0.83

O=C(NCCCC1CCCC1)N1CCC(Nc2ccc(CCNC[C@H](O)COc3ccc(O)cc3)cc2)CC1 [Example 12, 1-4-(4-{2-[(2S)-2-Hydroxy-3-(4-hydroxy-phenoxy)-propylamino]-ethyl}-phenylamino)-piperidine-1-carboxylic Acid (3-cyclopentyl-propyl)-amide]
EC50 ([1]; read-out: EC50(β3)): 0.05 µM

O=C(NCCc1cccc(F)c1)N1CCC(Nc2ccc(CCNC[C@H](O)COc3ccc(O)cc3)cc2)CC1 [Example 88, 4-(4-{2-[(2S)-2-Hydroxy-3-(4-hydroxy-phenoxy)-propylamino]-ethyl}-phenylamino)-piperidine-1-carboxylic Acid [2-(3-fluoro-phenyl)-ethyl]-amide]
EC50 ([1]; read-out: EC50(β3)): 0.021 µM | IA(β3) [1]: 0.81

COC(=O)[C@@H]1CCCN1C(=O)N1CCC(Nc2ccc(CCNC[C@H](O)c3ccc(O)c(NS(C)(=O)=O)c3)cc2)CC1 [Example 77, 1-[[4-[[4-[2-[[(2R)-2-Hydroxy-2-[4-hydroxy[(methylsulfonyl)amino]phenyl]ethyl]amino]ethyl]phenyl]amino]-1-piperidinyl]carbonyl]-L-proline, Methyl Ester]
EC50 ([1]; read-out: EC50(β3)): 0.028 µM | IA(β3) [1]: 0.99

O=C(NCc1ccc(F)cc1)N1CCC(S(=O)(=O)c2ccc(CCNC[C@H](O)COc3ccc(O)cc3)cc2)CC1 [Example 45, 4-(4-{2-[(2S)-2-Hydroxy-3-(4-hydroxy-phenoxy)-propylamino]-ethyl}-benzenesulfonyl)-piperidine-1-carboxylic Acid 4-fluoro-benzylamide]
EC50 ([1]; read-out: EC50(β3)): 0.064 µM | IA(β3) [1]: 1.07

CCCCCCCCNC(=O)N1CCC(C(=O)N2CCC(Nc3ccc(CCNC[C@H](O)COc4ccc(O)cc4)cc3)CC2)CC1 [Example 92, 4-[4-(4-{2-[(2S)-2-Hydroxy-3-(4-hydroxy-phenoxy)-propylamino]-ethyl}-phenylamino)-piperidine-1-carbonyl]-piperidine-1-carboxylic Acidoctylamide]
EC50 ([1]; read-out: EC50(β3)): 0.01 µM | IA(β3) [1]: 0.92

CCCCCCCCNC(=O)N1CCC(Nc2ccc(OCCNC[C@H](O)COc3ccc(O)cc3)cc2)CC1 [Example 73, 4-(4-{2-[(2S)-2-Hydroxy-3-(4-hydroxy-phenoxy)-propylamino]-ethoxy}-phenylamino)-piperidine-1-carboxylic Acid Octylamide]
EC50 ([1]; read-out: EC50(β3)): 0.07 µM | IA(β3) [1]: 0.8

O=C(NCc1ccc(O)cc1F)N1CCC(Nc2ccc(CCNCC(O)COc3ccc(O)cc3)cc2)CC1 (stereo not drawn) [Example 83, 4-(4-{2-[2-Hydroxy-3-(4-hydroxy-phenoxy)-propylamino]-ethyl}-phenylamino)-piperidine-1-carboxylic Acid 2-fluoro-4-hydroxy-benzylamide]
IA(β3) [1]: 0.88

CCCCCCCCNC(=O)N1CCC(Nc2ccc(CCNC[C@H](O)COc3ccc(O)c(NS(C)(=O)=O)c3)cc2)CC1 [Example 66, 4-(4-{2-[(2S)-2-Hydroxy-3-(4-hydroxy-3-methanesulfonylamino-phenoxy)-propylamino]-ethyl}-phenylamino)-piperidine-1-carboxylic Acidoctylamide]
EC50 ([1]; read-out: EC50(β3)): 0.2 µM | IA(β3) [1]: 0.99

CS(=O)(=O)Nc1cc([C@@H](O)CNCCc2ccc(NC3CCN(C(=O)c4ccc(C(=O)O)cc4)CC3)cc2)ccc1O [Example 105, 4-[4-(4-{2-[(2R)-2-Hydroxy-2-(4-hydroxy-3-methanesulfonylamino-phenyl)-ethylamino]-ethyl}-phenylamino)-piperidine-1-carbonyl]-benzoic Acid]
EC50 ([1]; read-out: EC50(β3)): 0.037 µM | IA(β3) [1]: 1

CCCCCCCCNC(=O)N1CCC(Nc2ccc(CCNC[C@H](O)c3cccc(Cl)c3)cc2)CC1 [Example 36, 4-(4-{2-[(2R)-2-(3-Chloro-phenyl)-2-hydroxy-ethylamino]-ethyl}-phenylamino)-piperidine-1-carboxylic Acid Octylamide]
IA(β3) [1]: 0.77

O=C(c1cc2cc(Br)ccc2[nH]1)N1CCC(Nc2ccc(CCNC[C@H](O)COc3ccc(O)cc3)cc2)CC1 [Example 96, (5-Bromo-1H-indol-2-yl)-[4-(4-{2-[(2S)-2-hydroxy-3-(4-hydroxy-phenoxy)-propylamino]-ethyl}-phenylamino)-piperidin-1-yl]-methanone]
EC50 ([1]; read-out: EC50(β3)): 0.306 µM | IA(β3) [1]: 0.83

O=C(NCc1ccc(Cl)cc1Cl)N1CCC(Nc2ccc(CCNC[C@H](O)COc3ccc(O)cc3)cc2)CC1 [Example 20, 4-(4-{2-[(2S)-2-Hydroxy-3-(4-hydroxy-phenoxy)-propylamino]-ethyl}-phenylamino)-piperidine-1-carboxylic Acid 2,4-dichloro-benzylamide]
IA(β3) [1]: 0.91

CCCCCCNC(=O)N1CCC(S(=O)(=O)c2ccc(CCNC[C@H](O)COc3ccc(O)cc3)cc2)CC1 [Example 44, 4-(4-{2-[(2S)-2-Hydroxy-3-(4-hydroxy-phenoxy)-propylamino]-ethyl}-benzenesulfonyl)-piperidine-1-carboxylic Acid Hexylamide]
EC50 ([1]; read-out: EC50(β3)): 0.036 µM | IA(β3) [1]: 0.99
